Assay [1] addresses T1, S1P1 (Homo sapiens, UniProt P21453). In words: β-arrestin assay S1P1. In kind it is cell-based.
Another assay addresses T2, S1P4 (Homo sapiens, UniProt O95977).
T2 sequence (O95977 1-384): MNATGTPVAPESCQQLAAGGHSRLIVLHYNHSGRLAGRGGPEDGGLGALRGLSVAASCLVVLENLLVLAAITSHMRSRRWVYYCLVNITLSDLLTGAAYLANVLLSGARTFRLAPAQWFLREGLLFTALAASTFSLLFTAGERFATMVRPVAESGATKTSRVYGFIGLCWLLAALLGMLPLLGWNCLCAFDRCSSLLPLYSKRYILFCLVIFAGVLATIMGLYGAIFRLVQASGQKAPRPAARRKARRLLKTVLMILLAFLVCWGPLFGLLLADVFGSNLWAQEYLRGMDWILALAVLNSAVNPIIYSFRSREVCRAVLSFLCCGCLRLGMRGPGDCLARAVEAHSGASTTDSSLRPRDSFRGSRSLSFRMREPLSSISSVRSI
In words: β-arrestin assay S1P4. It counts as cell-based.

The target in assay [2] is T1, S1P1. In words: cAMP assay. In kind it is cell-based. To be noted: read-out: ECK, cAMP. For orientation: Cyclic AMP is a second messenger, typically raised through Gs and lowered through Gi signalling.
The target of another assay is S1P5 (Homo sapiens, UniProt Q9H228). In words: β-arrestin assay S1P5. It counts as cell-based.
A further assay deals with S1P2 (Homo sapiens, UniProt O95136). In words: β-arrestin assay S1P2. It counts as cell-based.
The next assay has as its target S1P3 (Homo sapiens, UniProt Q99500). In words: β-arrestin assay S1P3. In kind it is cell-based.
The subject of the next assay is lymphocytes. In words: single ascending dose and multiple ascending dose studies in healthy subjects. It counts as in vivo.
The subject of assay [3] is bleomycin-induced skin fibrosis. In words: bleomycin-induced rodent model of skin fibrosis. In kind it is in vivo, male C57BL/6 mice. To be noted: mice, PO QD. How it is done:
Compound 1 was evaluated in a bleomycin-induced rodent model of skin fibrosis. Skin fibrosis was induced in male C57BL/6 mice (6-7 weeks old; 20-25 g) with bleomycin injections at a concentration of 0.5 mg/ml via subcutaneous (SC) route. The mice received 100 μl of bleomycin at 0.5 mg/ml dissolved in PBS every other day for 21 days. The following treatments were randomly assigned: 1.) sham+vehicle (10% HBPCD/saline) per oral (PO) once daily (QD); 2.) bleomycin+vehicle (10% HBPCD/saline) PO QD; 3.) bleomycin+1 mg/kg Compound 1 PO QD; 4.) bleomycin+3 mg/kg Compound 1 PO QD; 5.) bleomycin+1 mg/kg FTY720 PO 3×/week; 6.) bleomycin+90 mg/kg FTY720 intraperitoneal (IP) QD (FIG. 1). Skin tissue was harvested post-mortem, with half of the biopsy specimen fixed in 4% wt/vol. paraformaldehyde for histology and the other half snap frozen for collagen analysis (hydroxyproline assay). Histological sections (4 μm) were cut from paraffin-embedded PFA-fixed lesional skin tissue. Sections were stained with haematoxylin and eosin (H&E) and Masson's Trichrome. Images were captured at ×100 microscopic magnification for histological dermal thickness determination. Collagen deposition (FIG. 2A), dermal thickness (FIG. 2B), tissue sections (FIG. 2C), dermal fibrosis (FIG. 3A), inflammation (FIG. 3B), and average epidermal thickness (FIG. 3C) were evaluated.

T1 sequence (P21453 whole entry): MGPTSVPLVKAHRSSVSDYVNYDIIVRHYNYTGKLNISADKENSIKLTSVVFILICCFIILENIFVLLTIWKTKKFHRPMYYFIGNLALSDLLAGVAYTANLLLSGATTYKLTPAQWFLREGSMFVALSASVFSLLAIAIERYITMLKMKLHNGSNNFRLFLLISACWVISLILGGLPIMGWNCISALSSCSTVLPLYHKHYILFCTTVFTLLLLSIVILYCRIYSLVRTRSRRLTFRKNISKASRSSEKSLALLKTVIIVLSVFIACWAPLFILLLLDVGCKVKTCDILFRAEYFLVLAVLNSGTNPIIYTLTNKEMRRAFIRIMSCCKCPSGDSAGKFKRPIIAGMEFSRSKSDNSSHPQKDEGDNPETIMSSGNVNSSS
Sequence of S1P2 (O95136 whole entry): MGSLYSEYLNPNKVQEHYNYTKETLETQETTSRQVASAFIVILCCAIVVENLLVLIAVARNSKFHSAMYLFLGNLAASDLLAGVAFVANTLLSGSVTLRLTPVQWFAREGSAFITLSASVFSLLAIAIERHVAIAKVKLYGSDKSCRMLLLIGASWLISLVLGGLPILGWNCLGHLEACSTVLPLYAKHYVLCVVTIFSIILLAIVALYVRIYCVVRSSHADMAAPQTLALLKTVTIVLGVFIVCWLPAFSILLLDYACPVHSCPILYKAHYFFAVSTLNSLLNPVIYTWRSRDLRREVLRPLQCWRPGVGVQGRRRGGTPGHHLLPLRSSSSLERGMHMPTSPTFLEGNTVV
Sequence of S1P3 (Q99500 whole entry): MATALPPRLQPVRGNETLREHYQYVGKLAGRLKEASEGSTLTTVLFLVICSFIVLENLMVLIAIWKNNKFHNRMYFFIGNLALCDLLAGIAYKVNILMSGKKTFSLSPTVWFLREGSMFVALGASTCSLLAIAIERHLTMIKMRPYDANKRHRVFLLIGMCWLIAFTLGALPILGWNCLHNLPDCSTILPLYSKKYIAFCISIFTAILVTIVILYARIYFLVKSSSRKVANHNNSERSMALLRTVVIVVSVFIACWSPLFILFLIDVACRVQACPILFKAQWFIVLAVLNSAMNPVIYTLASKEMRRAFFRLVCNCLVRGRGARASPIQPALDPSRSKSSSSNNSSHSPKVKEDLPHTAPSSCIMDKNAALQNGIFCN
Sequence of S1P5 (Q9H228 whole entry): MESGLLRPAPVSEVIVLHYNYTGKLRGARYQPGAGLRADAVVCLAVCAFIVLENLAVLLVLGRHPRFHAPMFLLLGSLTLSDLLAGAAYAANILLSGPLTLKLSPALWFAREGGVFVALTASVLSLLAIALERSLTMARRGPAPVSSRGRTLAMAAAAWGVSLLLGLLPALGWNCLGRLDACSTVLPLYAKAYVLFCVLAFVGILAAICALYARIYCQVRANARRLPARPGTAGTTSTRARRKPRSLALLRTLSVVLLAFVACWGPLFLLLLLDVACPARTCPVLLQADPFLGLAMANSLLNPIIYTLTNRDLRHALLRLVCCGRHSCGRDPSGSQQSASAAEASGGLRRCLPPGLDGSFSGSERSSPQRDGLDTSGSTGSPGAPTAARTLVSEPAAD

Turning to `O=C(O)C[C@H]1CCc2c1[nH]c1ccc(OCc3ccc(C4CCCC4)c(C(F)(F)F)c3)cc21` [Compound 1, (R)-2-(7-(4-cyclopentyl-3-(trifluoromethyl)benzyloxy)-1,2,3,4-tetrahydrocyclopenta[b]indol-3-yl)acetic acid], the EC50 at S1P1 [1] was 6.1 nM; on S1P4, 147 nM; on S1P1 [2], 0.093 nM; on S1P5, 24.4 nM; on S1P2, above 10000 nM; at S1P3, above 10000 nM. Also, in the assay with lymphocytes, the lymphocyte lowering result is recorded as “demonstrated the lymphocyte lowering capabilities”. Moreover, the dermal thickening entry in assay [3] (histology, FIG. 2B) is “significantly reduced”. In assay [3] (hydroxyproline assay, FIG. 2A), the collagen deposition result is recorded as “significantly reduced”.
